In the CheMixHub viscosity set:

Assay: xn = mol fraction of the nth substance listed

C=Cc1ccccc1 + CN(C)C=O
viscosity [mPa·s], 101.33 kPa
Details	x1 = 0.109	x1 = 0.2013	x1 = 0.2959	x1 = 0.3998	x1 = 0.5052	x1 = 0.6012	x1 = 0.6979	x1 = 0.8049	x1 = 0.8976
298.15 K	0.831	0.845	0.854	0.858	0.86	0.856	0.847	0.825	0.794
303.15 K	0.78	0.79	0.801	0.804	0.802	0.798	0.79	0.768	0.735
308.15 K	0.732	0.742	0.749	0.75	0.749	0.746	0.739	0.717	0.685

CCCCCCCCO + CCCCCO
101.33 kPa
Details	viscosity [mPa·s]
293.15 K, x2 = 0.1991	7.947
293.15 K, x2 = 0.3363	7.158
293.15 K, x2 = 0.4792	6.397
293.15 K, x2 = 0.6294	5.561
293.15 K, x2 = 0.7214	5.182
293.15 K, x2 = 0.911	4.341
298.15 K, x2 = 0.0849	7.229
298.15 K, x2 = 0.2664	6.385
298.15 K, x2 = 0.3696	5.903
298.15 K, x2 = 0.6046	4.921
298.15 K, x2 = 0.708	4.524
298.15 K, x2 = 0.8575	3.97

CC12CC3CC(C1)CC(C)(C3)C2 + CCCCCCCCC
viscosity [mPa·s], 100 kPa
Details	x1 = 0.1004	x1 = 0.2014	x1 = 0.3	x1 = 0.4003	x1 = 0.5004	x1 = 0.6001	x1 = 0.7005	x1 = 0.7994	x1 = 0.8997
293.15 K	0.802	0.912	1.033	1.203	1.39	1.647	1.986	2.44	2.984
298.15 K	0.748	0.848	0.958	1.111	1.279	1.501	1.8	2.183	2.68
303.15 K	0.699	0.791	0.891	1.028	1.182	1.377	1.635	1.992	2.419
308.15 K	0.656	0.74	0.831	0.956	1.093	1.267	1.509	1.816	2.196
313.15 K	0.617	0.694	0.777	0.891	1.018	1.18	1.399	1.661	2
318.15 K	0.582	0.652	0.728	0.833	0.947	1.09	1.282	1.527	1.829
323.15 K	0.55	0.615	0.685	0.78	0.885	1.018	1.193	1.411	1.68

C[C@@H](O)[C@H](N)C(=O)O + O
101 kPa
Details	viscosity [mPa·s]
293.15 K, x1 = 0.001804	1.036
293.15 K, x1 = 0.0107	1.226
298.15 K, x1 = 8.95e-05	0.9002
298.15 K, x1 = 0.0001801	0.9048
298.15 K, x1 = 0.001819	0.9278
298.15 K, x1 = 0.003526	0.9547
298.15 K, x1 = 0.005296	0.9865
298.15 K, x1 = 0.007341	1.02
298.15 K, x1 = 0.008519	1.047
298.15 K, x1 = 0.01104	1.075
298.15 K, x1 = 0.01269	1.105
298.15 K, x1 = 0.01399	1.136
303.15 K, x1 = 0.007153	0.904
303.15 K, x1 = 0.01245	0.9968
305.15 K, x1 = 0.00036	0.788
305.15 K, x1 = 0.0007203	0.7937
305.15 K, x1 = 0.00108	0.7998
305.15 K, x1 = 0.001439	0.8055
305.15 K, x1 = 0.001798	0.8106
305.15 K, x1 = 0.002157	0.8163
308.15 K, x1 = 8.95e-05	0.7885
308.15 K, x1 = 0.0001801	0.7945
308.15 K, x1 = 0.001819	0.8025
308.15 K, x1 = 0.003526	0.8241
308.15 K, x1 = 0.005296	0.8417
308.15 K, x1 = 0.007341	0.8612
308.15 K, x1 = 0.008519	0.8741
308.15 K, x1 = 0.01104	0.9001
308.15 K, x1 = 0.01269	0.9289
308.15 K, x1 = 0.01399	0.9456
310.15 K, x1 = 0.00036	0.707
310.15 K, x1 = 0.0007203	0.7122
310.15 K, x1 = 0.00108	0.7174
310.15 K, x1 = 0.001439	0.7223
310.15 K, x1 = 0.001798	0.7263
310.15 K, x1 = 0.002157	0.7313
313.15 K, x1 = 0.008929	0.758
313.15 K, x1 = 0.0107	0.7828
313.15 K, x1 = 0.01245	0.8054
315.15 K, x1 = 0.00036	0.6527
315.15 K, x1 = 0.0007203	0.6576
315.15 K, x1 = 0.00108	0.6612
315.15 K, x1 = 0.001439	0.6656
315.15 K, x1 = 0.001798	0.6694
315.15 K, x1 = 0.002157	0.6737
318.15 K, x1 = 8.95e-05	0.6814
318.15 K, x1 = 0.0001801	0.6945
318.15 K, x1 = 0.001819	0.7042
318.15 K, x1 = 0.003526	0.7214
318.15 K, x1 = 0.005296	0.7356
318.15 K, x1 = 0.007341	0.7565
318.15 K, x1 = 0.008519	0.7645
318.15 K, x1 = 0.01104	0.7898
318.15 K, x1 = 0.01269	0.8045
318.15 K, x1 = 0.01399	0.8214
323.15 K, x1 = 0.00359	0.5782
323.15 K, x1 = 0.007153	0.6118

CC(C)(C)N + O=C1CCCCC1
298.15 K, 101 kPa
Details	viscosity [mPa·s]
x2 = 0.0765	0.525
x2 = 0.157	0.607
x2 = 0.2421	0.702
x2 = 0.3319	0.787
x2 = 0.427	0.893
x2 = 0.5278	1.021
x2 = 0.6349	1.172
x2 = 0.7488	1.373
x2 = 0.8702	1.644

CC(C)(C)N + NC1CCCCC1
298.15 K, 101 kPa
Details	viscosity [mPa·s]
x2 = 0.0757	0.569
x2 = 0.1557	0.7445
x2 = 0.2401	0.9554
x2 = 0.3296	1.173
x2 = 0.4244	1.407
x2 = 0.5252	1.612
x2 = 0.6324	1.785
x2 = 0.7468	1.894
x2 = 0.8691	1.915
